Data from article PMC11440381, “Facile and scale-up syntheses of high-performance enzyme@meso-HOF biocatalysts” (Chemical Science, 2024).

Target: T1, horseradish peroxidase (HRP) (Armoracia rusticana, UniProt P00433)
T1 construct: gene PRXC1A; free or encapsulated in HOF-PTBA
T1 sequence (P00433 31-338): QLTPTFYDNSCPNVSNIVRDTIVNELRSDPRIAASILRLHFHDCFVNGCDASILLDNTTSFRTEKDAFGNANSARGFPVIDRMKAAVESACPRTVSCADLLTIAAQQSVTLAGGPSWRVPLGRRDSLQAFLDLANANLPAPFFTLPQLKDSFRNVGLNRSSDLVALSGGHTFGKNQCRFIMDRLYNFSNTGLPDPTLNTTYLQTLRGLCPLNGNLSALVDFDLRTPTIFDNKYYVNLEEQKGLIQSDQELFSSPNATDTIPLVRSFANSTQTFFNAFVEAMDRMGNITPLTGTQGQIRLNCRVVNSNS
Test: GOx-HRP cascade, UV-vis of oxidised TMB
Format: biochemical
Settings: co-substrate H2O2 made by GOx from glucose; free GOx&HRP mixture and GOx&HRP@HOF-PTBA both tested

## Cc1cc(-c2cc(C)c(N)c(C)c2)cc(C)c1N [TMB]
  GOx-HRP cascade, UV-vis of oxidised TMB: H2O2 subsequently acting as a substrate for HRP to catalyze the oxidation of TMB
